Test results published in patent US11667643B2, “RIP1K inhibitors” (priority 2020, dated 2023).
Where two headings read alike, the source gives them in different places.

What was measured:
RIPK1 = RIPK1 (Homo sapiens (Human), UniProt Q13546); assay: biochemical; type: biochemical
Procedure: In this example, compounds of the disclosure were evaluated using a biochemical assay using the ADP-Glo™ technology.
ADP-Glo™ (Promega, Madison, Wis., USA) reagents were thawed at ambient temperature. Kinase Detection Reagent was prepared by mixing kinase detection buffer with the lyophilized kinase detection substrate.
A […] stock volume of 5× Reaction Kinase Buffer was made by mixing 1000 μl of 1M MgCl2, 500 μl of 1M Tris-HCL pH7.4, 0.5 mg/ml (25 mg) of BSA, and 3475 μl of distilled H2O. A 3 ml 2× working stock volume of Reaction Kinase Buffer was made containing a final concentration of 100 μM DTT and 4 mM MnCl2.
Components of RIPK1 enzyme (Rigel Pharmaceuticals, South San Francisco, Calif., USA) were thawed on ice. Diluted RIPK1 was prepared in 1× Kinase Reaction Buffer (diluted from 2× buffer) to 31 ng/well.
1.0 ul of diluted compound was added to a 384 well plate in duplicate. […] The final reaction volume was 5.0 μl. The plate was quickly centrifuged and the reaction was incubated at 30° C. for 30 minutes. Adding 5 μl of ADP-Glo™ terminated the reaction. The plate was quickly centrifuged and the reaction was incubated at room temperature for 40 minutes. Kinase Detection Reagent was then added and incubated at room temperature for 30 minutes. The relative light unit (RLU) of kinase reaction was determined by luminescent (Luminescence 0.1 s) using a Wallac Victor2 Luminometer (PerkinElmer, Waltham, Mass., USA).

U937 cells = assay: U937 cell necroptosis assay (TNFa + zVAD, CellTiter-Glo recovery), functional human RIP1 assay; type: cell-based; settings: Homo sapiens, U-937, 18 h, read-out: U937 Zvad TNF CTG Recovery, U937, TNFa + zVAD (IC50), U937 cells, zVAD-fmk, TNFa 2 ng/mL, 18 hours, CellTiter-Glo
Procedure: (§1) In this example, U937 and L929 cells were exposed to compounds of the present disclosure and a cell necroptosis assay was conducted to evaluate compound activity in functional human RIP1 and murine RIP1 assays.
(§2) U937 and L929 cells were obtained from the American Type Culture Collection (Manassa, Va., USA). Both cells were maintained in logarithmic growth phase in complete RPMI 1640 media (Sigma, ST Louis, Mo., USA) supplemented with 10% fetal bovine serum (Sigma, ST Louis, Mo., USA) at 37° C. with 5% CO2. For necroptosis assay, L929 cells were plated for 18 h in 100 μL/well medium at 10K cells/well in Costar 96-well black clear-bottom plates (Fisher Scientific, Hampton, N.H., USA); U937 cells were plated on the day of the assay in 50 μL/well medium containing 60 uM zVAD-fmk (Lonza, Basel, Switzerland) at 50K cells/well. Medium from L929 cells were removed from the 96-well plates and replaced with 50 μL/well new medium containing 40 uM zVAD-fmk. Each compound of the present disclosure evaluated in this example was serially diluted in DMSO from 2.5 mM in 4-fold dilutions, and then diluted 1:125 in complete medium. 50 μL/well 2× of the compound was then added to the cells in the plates. The cells were pre-incubated with the compound for 1 hour at 37° C. with 5% CO2 and before addition of 10 μL/well 11×TNFa (Peprotech, Rocky Hill, N.J., USA) to give a final concentration of 2 ng/mL for TNFa. The relative amount of necroptosis cells was determined by luminescent using a Wallac Victor2 Luminometer (PerkinElmer, Waltham, Mass., USA) and a CellTiter-Glo® Luminescent Cell Viability Reagent Assay (Promega, Madison, Wis., USA) added per manufacturer instructions after 18 hours of TNFa stimulation at 37° C. with 5% CO2. This example establishes that embodiments of the compounds described herein have unexpectedly potent activity against human RIP1 and murine RIP1, which allows their assessment in in vivo mouse models of disease.

L929 cells = assay: L929 cell necroptosis assay (TNFa + zVAD, CellTiter-Glo recovery), functional murine RIP1 assay; type: cell-based; settings: Mus musculus, L929, 18 h, read-out: L929-CTG-recovery, L929, TNFa + zVAD (IC50), L929 cells, zVAD-fmk, TNFa 2 ng/mL, 18 hours, CellTiter-Glo
Procedure: as §1, §2

[1] = RIPK1 enzyme 31 ng/well, 30° C. for 30 minutes, luminescence, read-out: RIPK1 ADP-Glo Kinase (IC50)

Sequence of RIPK1 (Q13546 whole entry, species assumed): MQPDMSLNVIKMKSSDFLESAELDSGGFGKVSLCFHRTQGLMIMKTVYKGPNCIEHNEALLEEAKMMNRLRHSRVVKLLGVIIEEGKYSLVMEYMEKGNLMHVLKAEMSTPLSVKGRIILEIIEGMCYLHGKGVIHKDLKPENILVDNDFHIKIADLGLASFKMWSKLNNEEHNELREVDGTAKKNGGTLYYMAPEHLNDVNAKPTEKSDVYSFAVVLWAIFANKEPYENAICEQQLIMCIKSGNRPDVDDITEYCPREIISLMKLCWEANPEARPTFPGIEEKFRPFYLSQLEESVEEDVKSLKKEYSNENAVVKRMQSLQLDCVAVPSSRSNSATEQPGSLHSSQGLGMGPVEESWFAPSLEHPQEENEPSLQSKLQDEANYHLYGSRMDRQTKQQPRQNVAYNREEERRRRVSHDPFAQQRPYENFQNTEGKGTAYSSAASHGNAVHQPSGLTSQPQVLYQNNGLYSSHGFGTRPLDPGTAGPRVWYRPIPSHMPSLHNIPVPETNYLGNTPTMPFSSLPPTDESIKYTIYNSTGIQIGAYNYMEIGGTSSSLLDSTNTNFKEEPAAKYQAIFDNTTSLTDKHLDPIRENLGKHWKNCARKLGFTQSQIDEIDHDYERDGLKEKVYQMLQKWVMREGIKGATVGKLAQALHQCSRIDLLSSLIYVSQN

`O=C(NC1CSc2cccn2-n2ccnc21)c1ncn(Cc2c(Cl)cccc2Cl)n1` (racemic) [Compound I-29, (±)-1-(2,6-Dichlorobenzyl)-N-(4,5-dihydroimidazo[1,2-d]pyrrolo[2,1-b][1,3,4]thiadiazepin-4-yl)-1H-1,2,4-triazole-3-carboxamide] was tested, and the IC50 (RIPK1) was 0.0098 µM, the IC50 (U937 cells) was 0.0011 µM and the IC50 (L929 cells) was 0.195 µM.
For `O=C(NC1COc2ccccc2-n2cccc21)c1n[nH]c(Cc2ccccc2)n1` (racemic) [Compound I-34, (±)-5-Benzyl-N-(6,7-dihydrobenzo[b]pyrrolo[1,2-d][1,4]oxazepin-7-yl)-1H-1,2,4-triazole-3-carboxamide], the IC50 (RIPK1; [1]) was 0.139 µM, the IC50 (U937 cells) was 1.54 µM and the IC50 (L929 cells) was 10000 µM.
For `Cc1cn2c(n1)C(NC(=O)c1ncn(Cc3c(Cl)cccc3Cl)n1)CCc1ccccc1-2` (racemic) [Compound I-35, (±)-1-(2,6-Dichlorobenzyl)-N-(2-methyl-5,6-dihydro-4H-benzo[f]imidazo[1,2-a]azepin-4-yl)-1H-1,2,4-triazole-3-carboxamide], the IC50 (RIPK1; [1]) was 2.08 µM, the IC50 (U937 cells) was 2.68 µM and the IC50 (L929 cells) was 10000 µM.
With `O=C(NC1CCc2ccccc2-n2c1n[nH]c2=O)c1ncn(Cc2c(Cl)cccc2Cl)n1` (racemic) [Compound I-36, (±)-1-(2,6-Dichlorobenzyl)-N-(1-oxo-2,4,5,6-tetrahydro-1H-benzo[f][1,2,4]triazolo[4,3-a]azepin-4-yl)-1H-1,2,4-triazole-3-carboxamide] the IC50 (RIPK1; [1]) was 2.8 µM, the IC50 (U937 cells) was 0.714 µM and the IC50 (L929 cells) was 16.1 µM.
`O=C(NC1COc2ccccc2-n2cccc21)c1n[nH]c(Cc2ccc(F)cc2)n1` (racemic) [Compound I-37, (±)-N-(6,7-Dihydrobenzo[b]pyrrolo[1,2-d][1,4]oxazepin-7-yl)-5-(4-fluorobenzyl)-1H-1,2,4-triazole-3-carboxamide] gave an IC50 (RIPK1; [1]) of 1.14 µM, an IC50 (U937 cells) of 4.07 µM and an IC50 (L929 cells) of 10000 µM.
In the case of `O=C(NC1COc2ccccc2-n2cccc21)c1ncn(Cc2ccccc2F)n1` (racemic) [Compound I-38, (±)-N-(6,7-Dihydrobenzo[b]pyrrolo[1,2-d][1,4]oxazepin-7-yl)-1-(2-fluorobenzyl)-1H-1,2,4-triazole-3-carboxamide], the IC50 (RIPK1; [1]) is reported as 0.0223 µM, the IC50 (U937 cells) is reported as 0.0439 µM and the IC50 (L929 cells) is reported as 9.79 µM.
With `O=C(NC1CCc2ccc(CN3CCN(c4ccncc4)CC3)cc2-n2ccnc21)c1n[nH]c(Cc2ccccc2)n1` (racemic) [Compound I-39, (±)-5-Benzyl-N-(9-((4-(pyridin-4-yl)piperazin-1-yl)methyl)-5,6-dihydro-4H-benzo[f]imidazo[1,2-a]azepin-4-yl)-1H-1,2,4-triazole-3-carboxamide] the IC50 (RIPK1; [1]) was 1.46 µM, the IC50 (U937 cells) was 1.38 µM and the IC50 (L929 cells) was 50.9 µM.
In the case of `Cc1cnc2n1-c1ccccc1CCC2NC(=O)c1ncn(Cc2c(Cl)cccc2Cl)n1` (racemic) [Compound I-44, (±)-1-(2,6-Dichlorobenzyl)-N-(1-methyl-5,6-dihydro-4H-benzo[f]imidazo[1,2-a]azepin-4-yl)-1H-1,2,4-triazole-3-carboxamide], the IC50 (RIPK1; [1]) is reported as 0.947 µM, the IC50 (U937 cells) is reported as 1.67 µM and the IC50 (L929 cells) is reported as 10000 µM.
With `O=C(NC1CSc2cccn2-n2ccnc21)c1n[nH]c(Cc2ccccc2)n1` (racemic) [Compound I-45, (±)-5-Benzyl-N-(4,5-dihydroimidazo[1,2-d]pyrrolo[2,1-b][1,3,4]thiadiazepin-4-yl)-1H-1,2,4-triazole-3-carboxamide] the IC50 (RIPK1; [1]) was 0.0312 µM, the IC50 (U937 cells) was 0.0364 µM and the IC50 (L929 cells) was 10.5 µM.
Molecule `O=C(NC1CCc2ccc(CN3CCN(c4ccncc4)CC3)cc2-n2ccnc21)c1ncn(Cc2c(Cl)cccc2Cl)n1` (racemic) [Compound I-47, (±)-1-(2,6-Dichlorobenzyl)-N-(9-((4-(pyridin-4-yl)piperazin-1-yl)methyl)-5,6-dihydro-4H-benzo[f]imidazo[1,2-a]azepin-4-yl)-1H-1,2,4-triazole-3-carboxamide] has an IC50 (RIPK1; [1]) of 0.0873 µM, an IC50 (U937 cells) of 0.0257 µM and an IC50 (L929 cells) of 9.5 µM.
Work on `O=C(NC1CCc2ccccc2-n2c1noc2=O)c1n[nH]c(Cc2ccccc2)n1` (racemic) [Compound I-48, (±)-5-Benzyl-N-(1-oxo-5,6-dihydro-1H,4H-benzo[f][1,2,4]oxadiazolo[4,3-a]azepin-4-yl)-1H-1,2,4-triazole-3-carboxamide] yielded an IC50 (RIPK1; [1]) of 0.0534 µM, an IC50 (U937 cells) of 0.0408 µM and an IC50 (L929 cells) of 10000 µM.
`O=C(NC1CCc2ccccc2-n2ccnc21)c1cc(Oc2ccccc2)ccn1` (racemic) [Compound I-51, (±)-N-(5,6-Dihydro-4H-benzo[f]imidazo[1,2-a]azepin-4-yl)-4-phenoxypicolinamide] showed an IC50 (RIPK1; [1]) of 0.0492 µM, an IC50 (U937 cells) of 0.125 µM and an IC50 (L929 cells) of 17.1 µM.
With `O=C(NC1CCc2ccccc2-n2c1noc2=O)c1cc(Oc2ccccc2)ccn1` (racemic) [Compound I-52, (±)-N-(1-Oxo-5,6-dihydro-1H,4H-benzo[f][1,2,4]oxadiazolo[4,3-a]azepin-4-yl)-4-phenoxypicolinamide] the IC50 (RIPK1; [1]) was 0.0325 µM, the IC50 (U937 cells) was 0.0647 µM and the IC50 (L929 cells) was 20.8 µM.
`O=C(NC1COc2ccccc2-n2cccc21)c1cc(Oc2ccccc2)ccn1` (racemic) [Compound I-54, (±)-N-(6,7-Dihydrobenzo[b]pyrrolo[1,2-d][1,4]oxazepin-7-yl)-4-phenoxypicolinamide] showed an IC50 (RIPK1; [1]) of 0.582 µM, an IC50 (U937 cells) of 1.25 µM and an IC50 (L929 cells) of 10000 µM.
For `CC(C)(O)C#Cc1ccc2c(c1)-n1ccnc1C(NC(=O)c1cc(Oc3ccccc3)ccn1)CC2` (racemic) [Compound I-56, (±)-N-(9-(3-Hydroxy-3-methylbut-1-yn-1-yl)-5,6-dihydro-477-benzo[f]imidazo[1,2-a]azepin-4-yl)-4-phenoxypicolinamide], the IC50 (RIPK1; [1]) was 0.0561 µM, the IC50 (U937 cells) was 0.0345 µM and the IC50 (L929 cells) was 5.09 µM.
In the case of `O=C(NC1CCc2ccccc2-n2cnnc21)c1n[nH]c(Cc2ccccc2)n1` (racemic) [Compound I-57, (±)-5-Benzyl-N-(5,6-dihydro-4H-benzo[f][1,2,4]triazolo[4,3-a]azepin-4-yl)-1H-1,2,4-triazole-3-carboxamide], the IC50 (RIPK1; [1]) is reported as 0.663 µM, the IC50 (U937 cells) is reported as 3.65 µM and the IC50 (L929 cells) is reported as 10000 µM.
`O=C(NC1CCc2ccccc2-n2cnnc21)c1ncn(Cc2c(Cl)cccc2Cl)n1` (racemic) [Compound I-58, (±)-1-(2,6-Dichlorobenzyl)-N-(5,6-dihydro-4H-benzo[f][1,2,4]triazolo[4,3-a]azepin-4-yl)-1H-1,2,4-triazole-3-carboxamide] gave an IC50 (RIPK1; [1]) of 0.0573 µM, an IC50 (U937 cells) of 0.0743 µM and an IC50 (L929 cells) of 10000 µM.
Molecule `O=C(NC1CCc2ccccc2-n2cnnc21)c1cc(Oc2ccccc2)ccn1` (racemic) [Compound I-59, (±)-N-(5,6-Dihydro-4H-benzo[f][1,2,4]triazolo[4,3-a]azepin-4-yl)-4-phenoxypicolinamide] has an IC50 (RIPK1; [1]) of 0.118 µM, an IC50 (U937 cells) of 0.829 µM and an IC50 (L929 cells) of 10000 µM.
Work on `Cn1nc2n(c1=O)-c1ccccc1CCC2NC(=O)c1ncn(Cc2c(Cl)cccc2Cl)n1` (racemic) [Compound I-60, (±)-1-(2,6-Dichlorobenzyl)-N-(2-methyl-1-oxo-2,4,5,6-tetrahydro-1H-benzo[f][1,2,4]triazolo[4,3-a]azepin-4-yl)-1H-1,2,4-triazole-3-carboxamide] yielded an IC50 (RIPK1; [1]) of 1.29 µM, an IC50 (U937 cells) of 35.8 µM and an IC50 (L929 cells) of 10000 µM.
For `O=C(NC1CCc2ccc(N3CCC4(CCOCC4)CC3)cc2-n2ccnc21)c1ncn(Cc2c(Cl)cccc2Cl)n1` (racemic) [Compound I-61, (±)-N-(9-(3-Oxa-9-azaspiro[5.5]undecan-9-yl)-5,6-dihydro-4H-benzo[f]imidazo[1,2-a]azepin-4-yl)-1-(2,6-dichlorobenzyl)-1H-1,2,4-triazole-3-carboxamide], the IC50 (RIPK1; [1]) was 0.0862 µM, the IC50 (U937 cells) was 0.0181 µM and the IC50 (L929 cells) was 0.106 µM.
